Measurements reported in patent US8877944B2, “3-oxo-2,3-dihydro-1H-isoindole-4-carboxamides as PARP inhibitors” (Nerviano Medical Sciences S.R.L., priority 2009, dated 2014).

Tests used:
PARP-1 FL = PARP-1 FL (Homo sapiens (Human), UniProt P09874); assay: Fluorescence polarization probe displacement assay, PARP-1; type: binding; details: for DC50: half maximal displacement concentration
Experimental: (§1) Affinity evaluation of the tested compounds and their selectivity with respect to the different PARP isoforms of interest was assessed in a displacement assay.
(§2) The polarization signal can be measured, e.g., by a plate reader such as the Saphire2 (Tecan). The displacement ability of the test compound is in correlation with the compound affinity for the NAD pocket of the enzyme.
(§3) The assay performances were then evaluated (Z′ factor) as well as the displacement of the probe by its scaffold and known commercially available PARP inhibitors. In all of the experiments, the polarization signal was measured using a Saphire2 plate reader (Tecan). Data analysis was performed using Dynafit software. In particular, titration data were fitted to the following equilibria: Enzyme+probe <==> Complex Enzyme-probe, while displacement data were fitted to the following equilibria: Enzyme+probe <==> Complex Enzyme-probe, Enzyme+Compound <==> Complex Enzyme-Compound, whereby binding of probe and compound on the enzyme are mutually exclusive (pure competitive mechanism). Displacement data were also fitted using Excell spreadsheet (Microsoft Inc. Seattle, USA) to a four parameter logistic model (4PL), or Hill-Slope model to calculate DC50s where the DC50 value represents the compound concentration at which the polarization signal is diminished by 50% compared to untreated controls.
(§4) KD values, are the average of three independent experiments.

PARP-2 FL = PARP-2 FL (Homo sapiens (Human), UniProt Q9UGN5); assay: Fluorescence polarization probe displacement assay, PARP-2; type: binding; details: read-out: PARP-2 DC50; half maximal displacement concentration
Experimental: as §1, §2, §3, §4

[1] = tested on: PAR formation in HeLa cells; assay: Cellular PAR assay: inhibition of hydrogen peroxide induced PAR formation; details: Homo sapiens, read-out: PAR assay IC50
Experimental: Compounds potencies were evaluated by measuring the inhibition of poly (ADP-ribose) (PAR) chains formation as a marker for PARP-1 inhibition.
Cellular activity of PARP-1 inhibitors was assessed by measuring the inhibition of the hydrogen peroxide induced PAR formation in HeLa cells (ECACC). Cellular PAR levels were measured by immunocytochemistry, and quantified using an ArrayScan vTi instrument (Cellomics Thermo Scientific).
Test compounds were then added at the required concentration for 30′. […] Concentration curves were prepared in MEM/10% FCS from compound stocks in DMSO, and final DMSO concentration was 0.002% (v/v). Duplicate wells for each concentration point were prepared with a typical highest compound concentration of 20 μM and serial dilution 1:3. […] Non-specific binding sites were blocked by incubating wells for 30 min in PBS containing 5% (w/v) FBS 0.05% tween20. […] After washing further 3 times in PBS, cellular PAR immunoreactivity was assessed using the ArrayScan vTi instrument, with a Zeiss 10×0.5 N.A. objective, and applying the Cytotoxicity.V3 algorithm (Cellomics/Thermo Fisher) with a XF100 filter. At least 10 fields, corresponding to at least 900 cells, were read for each well.
The following formula is used: IC50=Bottom+(Top-Bottom)/(1+10^((LogEC50−X))); X is the logarithm of concentration. IC50 is the response; IC50 starts at Bottom and goes to Top with a sigmoid shape.

PARP-3 FL = PARP-3 FL (Homo sapiens (Human), UniProt Q9Y6F1); assay: Fluorescence polarization probe displacement assay, PARP-3; type: binding; details: half maximal displacement concentration
Experimental: as §1, §2, §3, §4

[2] = compound P1 as the probe, 250 nM PARP-1

Chain of PARP-1 FL (P09874 whole entry): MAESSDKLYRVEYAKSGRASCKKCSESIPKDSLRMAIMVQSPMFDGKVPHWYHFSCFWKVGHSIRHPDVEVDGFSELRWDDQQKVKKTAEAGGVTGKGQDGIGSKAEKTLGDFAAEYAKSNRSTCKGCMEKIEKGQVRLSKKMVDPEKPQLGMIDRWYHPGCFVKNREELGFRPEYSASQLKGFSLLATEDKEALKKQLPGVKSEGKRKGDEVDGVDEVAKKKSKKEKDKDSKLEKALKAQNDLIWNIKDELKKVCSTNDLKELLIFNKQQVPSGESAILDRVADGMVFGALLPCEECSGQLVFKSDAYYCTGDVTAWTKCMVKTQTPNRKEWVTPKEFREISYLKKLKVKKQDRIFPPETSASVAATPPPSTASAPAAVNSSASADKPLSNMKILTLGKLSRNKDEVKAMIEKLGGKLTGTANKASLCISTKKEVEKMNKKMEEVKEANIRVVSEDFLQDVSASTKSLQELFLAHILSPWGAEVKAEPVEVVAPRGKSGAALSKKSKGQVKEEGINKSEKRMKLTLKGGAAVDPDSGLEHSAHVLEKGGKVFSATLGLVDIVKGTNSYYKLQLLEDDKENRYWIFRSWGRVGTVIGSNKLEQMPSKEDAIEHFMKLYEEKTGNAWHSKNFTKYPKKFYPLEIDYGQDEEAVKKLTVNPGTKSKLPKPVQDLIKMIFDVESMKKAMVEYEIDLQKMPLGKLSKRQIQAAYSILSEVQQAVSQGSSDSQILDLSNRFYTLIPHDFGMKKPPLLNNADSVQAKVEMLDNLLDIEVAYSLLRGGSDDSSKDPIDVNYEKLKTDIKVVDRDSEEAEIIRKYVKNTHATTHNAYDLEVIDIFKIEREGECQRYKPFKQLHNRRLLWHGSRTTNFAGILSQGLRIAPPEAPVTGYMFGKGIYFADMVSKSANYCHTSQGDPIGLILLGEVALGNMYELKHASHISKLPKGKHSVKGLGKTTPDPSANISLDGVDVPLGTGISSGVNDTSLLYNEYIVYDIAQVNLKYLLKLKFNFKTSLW
Chain of PARP-2 FL (Q9UGN5 whole entry): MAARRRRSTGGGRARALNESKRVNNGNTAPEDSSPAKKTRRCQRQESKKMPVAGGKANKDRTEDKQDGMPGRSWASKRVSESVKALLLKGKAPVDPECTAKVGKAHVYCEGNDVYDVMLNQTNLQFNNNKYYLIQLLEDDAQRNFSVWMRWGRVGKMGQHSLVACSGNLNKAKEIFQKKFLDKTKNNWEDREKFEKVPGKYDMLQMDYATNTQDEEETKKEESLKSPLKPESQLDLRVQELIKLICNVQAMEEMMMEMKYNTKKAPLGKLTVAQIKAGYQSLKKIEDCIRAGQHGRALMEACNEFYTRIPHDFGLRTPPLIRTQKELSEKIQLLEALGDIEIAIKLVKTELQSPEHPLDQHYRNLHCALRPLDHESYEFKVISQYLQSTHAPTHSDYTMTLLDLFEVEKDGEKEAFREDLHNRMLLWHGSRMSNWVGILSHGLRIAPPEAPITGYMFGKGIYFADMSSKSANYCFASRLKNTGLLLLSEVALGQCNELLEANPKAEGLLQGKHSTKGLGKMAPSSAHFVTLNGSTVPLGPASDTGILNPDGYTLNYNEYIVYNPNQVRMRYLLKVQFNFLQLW
Chain of PARP-3 FL (Q9Y6F1 whole entry): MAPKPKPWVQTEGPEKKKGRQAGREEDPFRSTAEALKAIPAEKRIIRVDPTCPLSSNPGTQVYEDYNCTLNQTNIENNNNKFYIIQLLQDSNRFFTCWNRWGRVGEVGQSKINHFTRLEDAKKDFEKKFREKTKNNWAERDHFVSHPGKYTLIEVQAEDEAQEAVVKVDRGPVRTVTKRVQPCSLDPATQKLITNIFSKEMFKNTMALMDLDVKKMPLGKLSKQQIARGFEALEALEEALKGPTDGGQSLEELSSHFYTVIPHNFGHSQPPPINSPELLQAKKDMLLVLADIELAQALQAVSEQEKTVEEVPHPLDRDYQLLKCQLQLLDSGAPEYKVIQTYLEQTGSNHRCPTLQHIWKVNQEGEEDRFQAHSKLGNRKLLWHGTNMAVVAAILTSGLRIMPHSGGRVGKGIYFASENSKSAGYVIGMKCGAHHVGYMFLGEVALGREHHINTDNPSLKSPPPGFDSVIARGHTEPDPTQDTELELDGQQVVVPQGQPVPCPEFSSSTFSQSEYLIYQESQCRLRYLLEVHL

Row | Compound | Kd (PARP-1 FL; [2]) [nM] | DC50 (PARP-1 FL) [nM] | DC50 (PARP-2 FL) [nM] | IC50 [1] [nM] | Kd (PARP-1 FL; compound P3 as the probe, 100 nM PARP-1) [nM] | DC50 (PARP-3 FL) [nM]
1 | NC(=O)c1cccc2c1C(=O)N(C1CCN(Cc3cccc(F)c3)CC1)C2 [Compound 13, 2-[1-(3-Fluorobenzyl)piperidin-4-yl]-3-oxo-2,3-dihydro-1H-isoindole-4-carboxamide] | < 30 | < 250 | > 10000 |  |  | 
2 | Cc1ccsc1CN1CCC(N2Cc3cccc(C(N)=O)c3C2=O)CC1 [Compound 36, 2-{1-[(3-Methylthiophen-2-yl)methyl]piperidin-4-yl}-3-oxo-2,3-dihydro-1H-isoindole-4-carboxamide] | < 30 | < 250 | 9400 | 230 |  | 
3 | COC[C@H]1CC[C@H](N2CCC(N3Cc4cccc(C(N)=O)c4C3=O)CC2)CC1 [Compound 6, 2-{1-[Trans-4-(methoxymethyl)cyclohexyl]piperidin-4-yl}-3-oxo-2,3-dihydro-1H-isoindole-4-carboxamide] | < 30 | < 250 | > 10000 | 2300 |  | 
4 | Cc1ccc(CN2CCC(N3Cc4cccc(C(N)=O)c4C3=O)CC2)cc1C [Compound 18, 2-[1-(3,4-Dimethylbenzyl)piperidin-4-yl]-3-oxo-2,3-dihydro-1H-isoindole-4-carboxamide] | < 30 | < 250 | > 10000 | 7100 |  | 
5 | CO[C@H]1CC[C@H](N2CCC(N3Cc4cccc(C(N)=O)c4C3=O)CC2)CC1 [Compound 2, 2-[1-(Trans-4-methoxycyclohexyl)piperidin-4-yl]-3-oxo-2,3-dihydro-1H-isoindole-4-carboxamide] |  | < 250 | > 10000 | 160 | 25 | 6000
6 | NC(=O)c1cccc2c1C(=O)N(C1CCN(CC3CCN(Cc4ccccc4)CC3)CC1)C2 [Compound 27, 2-{1-[(1-Benzylpiperidin-4-yl)methyl]piperidin-4-yl}-3-oxo-2,3-dihydro-1H-isoindole-4-carboxamide] | < 30 | 260 | > 10000 | 320 |  | 
7 | COc1ccc(CN2CCC(N3Cc4cccc(C(N)=O)c4C3=O)CC2)cc1 [Compound 39, 2-[1-(4-Methoxybenzyl)piperidin-4-yl]-3-oxo-2,3-dihydro-1H-isoindole-4-carboxamide] | < 30 | < 250 | > 10000 | 330 |  | 
8 | NC(=O)c1cccc2c1C(=O)N(C1CCN(Cc3ccccc3F)CC1)C2 [Compound 12, 2-[1-(2-Fluorobenzyl)piperidin-4-yl]-3-oxo-2,3-dihydro-1H-isoindole-4-carboxamide] | < 30 | < 250 | > 10000 |  |  | 
9 | COC[C@H]1CC[C@@H](N2CCC(N3Cc4cccc(C(N)=O)c4C3=O)CC2)CC1 [Compound 5, 2-{1-[Cis-4-(methoxymethyl)cyclohexyl]piperidin-4-yl}-3-oxo-2,3-dihydro-1H-isoindole-4-carboxamide] | 40 | < 250 | > 10000 | 4600 |  | 
10 | NC(=O)c1cccc2c1C(=O)N(C1CCN(Cc3cccc(Cl)c3)CC1)C2 [Compound 42, 2-[1-(3-Chlorobenzyl)piperidin-4-yl]-3-oxo-2,3-dihydro-1H-isoindole-4-carboxamide] | 33 | < 250 | 4150 | 5310 |  | 
11 | Cn1cc(CN2CCC(N3Cc4cccc(C(N)=O)c4C3=O)CC2)cn1 [Compound 33, 2-{1-[(1-Methyl-1H-pyrazol-4-yl)methyl]piperidin-4-yl}-3-oxo-2,3-dihydro-1H-isoindole-4-carboxamide] |  | < 250 | > 10000 | 1100 |  | 
12 | NC(=O)c1cccc2c1C(=O)N(CC1CCN(Cc3ccc(F)cc3)CC1)C2 [Compound 51, 2-{[1-(4-Fluorobenzyl)piperidin-4-yl]methyl}-3-oxo-2,3-dihydro-1H-isoindole-4-carboxamide] | < 30 | < 250 | 5680 | 160 |  | 
13 | CCCOc1ccc(CN2CCC(N3Cc4cccc(C(N)=O)c4C3=O)CC2)cc1 [Compound 37, 3-oxo-2-[1-(4-propoxybenzyl)piperidin-4-yl]-2,3-dihydro-1H-isoindole-4-carboxamide] | < 30 | < 250 | > 10000 | 260 |  | 
14 | NC(=O)c1cc(Cl)cc2c1C(=O)N(C1CCN(C3CCC(F)(F)CC3)CC1)C2 [Compound 100, 2-[1-(4,4-Difluorocyclohexyl)-piperidin-4-yl]-6-chloro-3-oxo-2,3-dihydro-1H-isoindole-4-carboxamide] |  |  | > 10000 |  |  | 790
15 | CCOc1cccc(CN2CCC(N3Cc4cccc(C(N)=O)c4C3=O)CC2)c1 [Compound 40, 2-[1-(3-Ethoxybenzyl)piperidin-4-yl]-3-oxo-2,3-dihydro-1H-isoindole-4-carboxamide] | 110 | < 250 | > 10000 | 620 |  | 
16 | NC(=O)c1cccc2c1C(=O)N(C1CCN(Cc3ccc(F)cc3F)CC1)C2 [Compound 17, 2-[1-(2,4-Difluorobenzyl)piperidin-4-yl]-3-oxo-2,3-dihydro-1H-isoindole-4-carboxamide] | < 30 | < 250 | > 10000 | 5770 |  | 

Row | Compound | Kd (PARP-1 FL; [2]) [nM] | DC50 (PARP-1 FL) [nM] | DC50 (PARP-2 FL) [nM] | IC50 [1] [nM] | Kd (PARP-1 FL; compound P3 as the probe, 100 nM PARP-1) [nM] | DC50 (PARP-3 FL) [nM]
17 | NC(=O)c1cccc2c1C(=O)N(C1CCN(Cc3ccc4ccccc4n3)CC1)C2 [Compound 16, 3-oxo-2-[1-(quinolin-2-ylmethyl)piperidin-4-yl]-2,3-dihydro-1H-isoindole-4-carboxamide] | < 30 | < 250 | 3200 |  |  | 
18 | Cc1c(CN2CCC(N3Cc4cccc(C(N)=O)c4C3=O)CC2)cnn1C [Compound 34, 2-{1-[(1,5-Dimethyl-1H-pyrazol-4-yl)methyl]piperidin-4-yl}-3-oxo-2,3-dihydro-1H-isoindole-4-carboxamide] | 130 | 340 | > 10000 | 900 |  | 
19 | NC(=O)c1ccc(F)c2c1C(=O)N(C1CCN(C3CCC(F)(F)CC3)CC1)C2 [Compound 101, 2-[1-(4,4-Difluorocyclohexyl)-piperidin-4-yl]-7-fluoro-3-oxo-2,3-dihydro-1H-isoindole-4-carboxamide] |  |  | > 10000 |  |  | > 10000
20 | Cc1ccc(CN2CCC(N3Cc4cccc(C(N)=O)c4C3=O)CC2)s1 [Compound 45, 2-{1-[(5-Methylthiophen-2-yl)methyl]piperidin-4-yl}-3-oxo-2,3-dihydro-1H-isoindole-4-carboxamide] | < 30 | < 250 | > 10000 | 360 |  | 
21 | CC(C)c1ccc(CN2CCC(N3Cc4cccc(C(N)=O)c4C3=O)CC2)cc1 [Compound 38, 3-oxo-2-{1-[4-(propan-2-yl)benzyl]piperidin-4-yl}-2,3-dihydro-1H-isoindole-4-carboxamide] | < 30 | < 250 | > 10000 | 260 |  | 
22 | Cc1ncsc1CN1CCC(N2Cc3cccc(C(N)=O)c3C2=O)CC1 [Compound 26, 2-{1-[(4-Methyl-1,3-thiazol-5-yl)methyl]piperidin-4-yl}-3-oxo-2,3-dihydro-1H-isoindole-4-carboxamide] | < 30 | < 250 | 6500 | 200 |  | 
23 | CCc1ccc(CN2CCC(N3Cc4cccc(C(N)=O)c4C3=O)CC2)cc1 [Compound 43, 2-[1-(4-Ethylbenzyl)piperidin-4-yl]-3-oxo-2,3-dihydro-1H-isoindole-4-carboxamide] | < 30 | < 250 | > 10000 | 2660 |  | 
24 | COc1cccc(CN2CCC(N3Cc4cccc(C(N)=O)c4C3=O)CC2)c1 [Compound 35, 2-[1-(3-Methoxybenzyl)piperidin-4-yl]-3-oxo-2,3-dihydro-1H-isoindole-4-carboxamide] | < 30 | < 250 | > 10000 | 300 |  | 
25 | NC(=O)c1cccc2c1C(=O)N(C1CCN(Cc3cccc4[nH]ccc34)CC1)C2 [Compound 28, 2-[1-(1H-indol-4-ylmethyl)piperidin-4-yl]-3-oxo-2,3-dihydro-1H-isoindole-4-carboxamide] | 34 | < 250 |  | 190 |  | 
26 | NC(=O)c1cc(F)cc2c1C(=O)N(C1CCN(C3CCC(Cl)(Cl)CC3)CC1)C2 [Compound 105, 2-[1-(4,4-Dichlorocyclohexyl)piperidin-4-yl]-6-fluoro-3-oxo-2,3-dihydro-1H-isoindole-4-carboxamide] |  |  | > 10000 |  |  | 1080
27 | NC(=O)c1cccc2c1C(=O)N(CCCN1CCN(c3cccc(Cl)c3)CC1)C2 [Compound 46, 2-{3-[4-(3-Chloro-phenyl)-piperazin-1-yl]-propyl}-3-oxo-2,3-dihydro-1H-isoindole-4-carboxylic acid amide] |  | < 250 | 1460 | 400 |  | 
28 | NC(=O)c1cccc2c1C(=O)N(C1CCN(Cc3ccc4cc[nH]c4c3)CC1)C2 [Compound 30, 2-[1-(1H-indol-6-ylmethyl)piperidin-4-yl]-3-oxo-2,3-dihydro-1H-isoindole-4-carboxamide] |  | < 250 | 5970 | 300 |  | 
29 | CC(C)Oc1ccccc1CN1CCC(N2Cc3cccc(C(N)=O)c3C2=O)CC1 [Compound 41, 3-oxo-2-{1-[2-(propan-2-yloxy)benzyl]piperidin-4-yl}-2,3-dihydro-1H-isoindole-4-carboxamide] |  | 470 | > 10000 |  |  | 
30 | CC(C)Oc1ccc(CN2CCC(N3Cc4cccc(C(N)=O)c4C3=O)CC2)cc1 [Compound 44, 3-oxo-2-{1-[4-(propan-2-yloxy)benzyl]piperidin-4-yl}-2,3-dihydro-1H-isoindole-4-carboxamide] |  | < 250 | > 10000 | 500 |  | 
31 | NC(=O)c1cccc2c1C(=O)N(C1CCN(Cc3ccc(F)cc3)CC1)C2 [Compound 11, 2-[1-(4-Fluorobenzyl)piperidin-4-yl]-3-oxo-2,3-dihydro-1H-isoindole-4-carboxamide] |  |  | > 10000 |  |  | 
